The target in the assay is recombinant human CCR5 receptor (Homo sapiens, UniProt P51681). Description: MIP-1α radioligand binding assay (scintillation proximity). Particulars: displacement of 0.1 nM iodinated MIP-1α; membranes of Chinese hamster ovary cells expressing recombinant human CCR5; average if tested more than once. On the procedure:
The ability of compounds to inhibit the binding of MIP-1α was assessed by an in vitro radioligand binding assay. Membranes were prepared from Chinese hamster ovary cells which expressed the recombinant human CCR5 receptor. These membranes were incubated with 0.1 nM iodinated MIP-1α, scintillation proximity beads and various concentrations of the compounds of the invention in 96-well plates. The amount of iodinated MIP-1α bound to the receptor was determined by scintillation counting. Competition curves were obtained for compounds and the concentration of compound which displaced 50% of bound iodinated MIP-1α was calculated (IC50).
In Table IV the results are presented as Pic50 values. A Pic50 value is the negative log (to base 10) of the IC50 result, so an IC50 of 1 μM (that is 1×10^−6M) gives a Pic50 of 6. If a compound was tested more than once then the data below is an average of the probative tests results.
recombinant human CCR5 receptor, sequence (P51681 whole entry): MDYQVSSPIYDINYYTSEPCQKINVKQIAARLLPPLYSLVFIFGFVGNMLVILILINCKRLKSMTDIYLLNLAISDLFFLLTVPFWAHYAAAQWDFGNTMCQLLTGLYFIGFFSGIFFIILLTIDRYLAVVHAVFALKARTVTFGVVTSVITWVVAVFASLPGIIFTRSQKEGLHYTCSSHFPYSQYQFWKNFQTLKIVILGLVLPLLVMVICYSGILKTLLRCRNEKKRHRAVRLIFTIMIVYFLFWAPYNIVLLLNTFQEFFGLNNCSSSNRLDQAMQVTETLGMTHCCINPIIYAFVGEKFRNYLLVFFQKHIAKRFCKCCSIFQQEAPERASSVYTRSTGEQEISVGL
Usually IC50 stands for the concentration that gives 50% inhibition. For `CS(=O)(=O)c1ccc(CNC(=O)CCC2CCN(CCC(c3ccccc3)C3CCN(S(C)(=O)=O)CC3)CC2)cc1` (single isomer, unassigned) [Table V Compound 3], the IC50 was 89.1 nM.

As to `CS(=O)(=O)c1ccc(NC(=O)CC2CCN(CCC(c3ccccc3)N3CCN(c4ccccc4)CC3)CC2)cc1` (centres unmarked) [Table I Compound 3], the IC50 is 12 nM.

In the case of `CS(=O)(=O)c1ccc(NC(=O)CC2CCN(CCC(c3ccccc3)C3CCN(C(=O)c4ccc(Cl)cc4)CC3)CC2)cc1` (centres unmarked) [Table I Compound 5], the IC50 is 1.32 nM.

In the case of `CS(=O)(=O)N1CCC(C(CCN2CCC(CC(=O)Nc3ccc(F)cc3)CC2)c2ccccc2)CC1` (centres unmarked) [Table I Compound 6], the IC50 is 5.62 nM.

Consider `CS(=O)(=O)c1ccc(NC(=O)CC2CCN(CC[C@@H](c3ccccc3)c3ccc(S(C)(=O)=O)cc3)CC2)cc1` [Table IV Compound 1, (S) N-(4-methanesulphonylphenyl)-1-[3-phenyl-3-(4-methanesulphonylphenyl)-propyl]piperidin-4-yl acetamide], for which the IC50 was 0.871 nM.

The values are drawn from US20060069120A1, “Novel piperidine derivaties as modulators of chemokine receptor ccr5” (priority 2002, published 2006).
